Patent publication US20030215462A1, “Use of UGT inhibitors to increase bioavailability” (priority 2001, published 2003)
One block for each compound: values may come before it.

Assays:
[1] = target: T1, UGT1A10 (Homo sapiens, UniProt Q9HAW8); assay: in vitro; conditions: pH 7.5, % of control metabolism
T1 sequence (Q9HAW8 26-530): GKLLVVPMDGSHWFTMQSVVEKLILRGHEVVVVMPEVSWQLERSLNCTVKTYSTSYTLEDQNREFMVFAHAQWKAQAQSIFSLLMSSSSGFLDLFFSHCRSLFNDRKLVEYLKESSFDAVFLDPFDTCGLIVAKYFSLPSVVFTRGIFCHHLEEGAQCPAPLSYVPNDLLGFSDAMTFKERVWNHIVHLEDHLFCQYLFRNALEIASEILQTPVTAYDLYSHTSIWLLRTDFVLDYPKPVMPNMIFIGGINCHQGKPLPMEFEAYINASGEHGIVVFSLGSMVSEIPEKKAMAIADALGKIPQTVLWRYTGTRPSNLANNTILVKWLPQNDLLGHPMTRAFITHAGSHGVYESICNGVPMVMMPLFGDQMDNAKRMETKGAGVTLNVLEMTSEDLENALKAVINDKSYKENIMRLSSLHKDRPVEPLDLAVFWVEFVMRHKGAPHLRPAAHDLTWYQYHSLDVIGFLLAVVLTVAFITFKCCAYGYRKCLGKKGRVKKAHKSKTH
Procedure: (§1) Compounds were eluted using a binary solvent gradient system. Solvent A was water brought to pH 8 with NH4OH. Solvent B was methanol. Solvent flow rate was 1 ml/min and the column temperature was maintained at 50° C. Detection was at 280 nm. […] The system was then returned to the initial conditions and equilibrated for 3 min.

[2] = target: T2, UGT1A3 (Homo sapiens, UniProt P35503); assay: in vitro
T2 sequence (P35503 29-534): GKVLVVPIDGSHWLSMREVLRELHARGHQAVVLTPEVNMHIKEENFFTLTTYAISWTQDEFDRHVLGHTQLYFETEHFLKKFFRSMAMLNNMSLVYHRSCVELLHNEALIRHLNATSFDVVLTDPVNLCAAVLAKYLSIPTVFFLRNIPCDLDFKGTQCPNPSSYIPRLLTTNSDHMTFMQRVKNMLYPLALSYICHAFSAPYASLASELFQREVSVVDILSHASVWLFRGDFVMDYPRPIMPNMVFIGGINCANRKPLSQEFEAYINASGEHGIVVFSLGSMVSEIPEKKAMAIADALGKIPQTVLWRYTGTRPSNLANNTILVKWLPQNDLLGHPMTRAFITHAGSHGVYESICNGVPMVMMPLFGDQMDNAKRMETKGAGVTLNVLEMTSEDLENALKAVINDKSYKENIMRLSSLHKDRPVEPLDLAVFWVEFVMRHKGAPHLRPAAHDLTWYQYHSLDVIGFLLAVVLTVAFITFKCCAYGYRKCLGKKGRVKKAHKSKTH
Procedure: as §1

[3] = target: T3, UGT1A9 (Homo sapiens, UniProt O60656); assay: in vitro; conditions: pH 7.5, % of control metabolism
T3 sequence (O60656 26-530): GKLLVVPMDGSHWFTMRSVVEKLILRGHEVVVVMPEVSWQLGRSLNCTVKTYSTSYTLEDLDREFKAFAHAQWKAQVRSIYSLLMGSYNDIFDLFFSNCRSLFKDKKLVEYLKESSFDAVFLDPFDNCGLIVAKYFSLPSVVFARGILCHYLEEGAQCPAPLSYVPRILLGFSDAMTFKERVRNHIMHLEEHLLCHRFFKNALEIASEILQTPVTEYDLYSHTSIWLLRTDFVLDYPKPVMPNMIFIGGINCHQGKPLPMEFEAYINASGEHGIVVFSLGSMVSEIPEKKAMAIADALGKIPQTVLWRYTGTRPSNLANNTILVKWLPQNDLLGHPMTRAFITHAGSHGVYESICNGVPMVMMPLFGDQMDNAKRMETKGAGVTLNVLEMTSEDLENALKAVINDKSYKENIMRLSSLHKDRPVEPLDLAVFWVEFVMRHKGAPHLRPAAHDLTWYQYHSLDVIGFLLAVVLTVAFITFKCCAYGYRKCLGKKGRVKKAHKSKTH
Procedure: as §1

[4] = target: T4, UGT1A1 (Homo sapiens, UniProt P22309); assay: in vitro
T4 sequence (P22309 26-533): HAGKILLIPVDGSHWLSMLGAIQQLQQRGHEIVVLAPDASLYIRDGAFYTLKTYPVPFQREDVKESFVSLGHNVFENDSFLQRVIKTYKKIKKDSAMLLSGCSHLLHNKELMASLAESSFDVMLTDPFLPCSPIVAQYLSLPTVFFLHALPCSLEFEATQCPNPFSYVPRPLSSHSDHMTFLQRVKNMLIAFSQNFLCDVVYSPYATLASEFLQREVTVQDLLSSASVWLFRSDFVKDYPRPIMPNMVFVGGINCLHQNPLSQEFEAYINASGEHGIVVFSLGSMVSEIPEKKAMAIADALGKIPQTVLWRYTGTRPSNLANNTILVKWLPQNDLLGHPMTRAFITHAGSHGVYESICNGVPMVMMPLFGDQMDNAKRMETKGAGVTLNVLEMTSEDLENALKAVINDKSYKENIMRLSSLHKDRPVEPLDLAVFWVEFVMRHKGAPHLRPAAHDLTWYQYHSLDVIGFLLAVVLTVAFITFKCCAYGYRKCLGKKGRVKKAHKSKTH
Procedure: as §1

[5] = tested on: T5, UGT enzymes of human liver microsomes; assay: Inhibition of 7-HFC glucuronidation in human liver microsomes; type: biochemical; conditions: 7-HFC 50 μM, human liver microsomes 100 μg/ml, 15 min
T5 construct: percentage of control metabolism, 7-HFC glucuronidation; percentage of control metabolism, 7-HFC glucuronidation

[6] = tested on: T6, UGT enzymes of human liver microsomes; assay: Inhibition of labetalol glucuronidation (LG1, LG2) in human liver microsomes; type: biochemical; conditions: labetalol 50 μM; inhibitor 100 μM
T6 construct: residual metabolism (percentage of control), labetalol LG1; other: labetalol 50 μM; residual metabolism (percentage of control), labetalol LG1; residual metabolism (percentage of control), labetalol LG2; inhi
Procedure: Supernatants were analyzed by HPLC with fluorescence detection.
Compounds were eluted using a binary solvent gradient system where solvent A was 5:5:90 tetrahydrofuran-acetonitrile-(NH4)2HPO4 50 mM, while solvent B was 25:25:50 tetrahydrofuran-acetonitrile-(NH4)2HPO4 50 mM. Solvent flow rate was 0.75 ml/min and the column temperature was ambient. […] Labetalol and metabolites were measured by fluorescence detection using a Jasco model FP920 detector. Excitation and emission wavelengths were 370 nm 418 nm respectively. Retention times for salicylamide internal standard and labetalol were 6.6 min and 15.0 min respectively.

[7] = tested on: UGT enzymes of human liver microsomes; assay: Inhibition of raloxifene glucuronidation (G1, G2) in human liver microsomes; type: biochemical; conditions: raloxifene 50 μM; for % of control metabolism (SD, n = 3), raloxifene glucuronide G1 / % of control metabolism (SD, n = 3), raloxifene glucuronide G2: human liver microsomes 250 μg/ml, 15 min
Excerpt: Compounds were eluted using a binary solvent gradient system. […] Solvent B was methanol. […] Detection was at 280 nm.

[8] = target: T7, UGT enzymes of human liver microsomes (Homo sapiens, UniProt P16662); assay: Inhibition of zidovudine glucuronidation in human liver microsomes; type: biochemical; conditions: liver lot 062101; inhibitor 500 μM
T7 construct: residual metabolism (percentage of control), zidovudine glucuronidation; other: liver lot 062101; residual metabolism (percentage of control), zidovudine glucuronidation; residual metabolism (percentage of control)
T7 sequence (P16662 1-529): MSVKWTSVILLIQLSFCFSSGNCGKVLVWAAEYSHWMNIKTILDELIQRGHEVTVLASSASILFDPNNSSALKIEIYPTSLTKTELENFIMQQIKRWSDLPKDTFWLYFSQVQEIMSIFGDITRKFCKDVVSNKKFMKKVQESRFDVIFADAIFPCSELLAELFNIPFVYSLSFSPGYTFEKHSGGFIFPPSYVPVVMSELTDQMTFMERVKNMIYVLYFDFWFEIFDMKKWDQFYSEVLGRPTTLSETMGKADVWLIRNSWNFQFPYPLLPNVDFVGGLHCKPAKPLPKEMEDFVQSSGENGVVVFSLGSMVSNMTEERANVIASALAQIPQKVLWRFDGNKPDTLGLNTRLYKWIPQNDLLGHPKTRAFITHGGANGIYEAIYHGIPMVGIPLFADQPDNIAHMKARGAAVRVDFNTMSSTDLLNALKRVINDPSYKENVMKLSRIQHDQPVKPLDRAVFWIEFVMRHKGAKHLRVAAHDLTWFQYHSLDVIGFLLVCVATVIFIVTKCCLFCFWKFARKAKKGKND
Procedure: Compounds were eluted using a binary solvent gradient system where solvent A was dilute phosphoric acid (pH 3) and solvent B was acetonitrile.
Standardized incubations utilized 500 μM zidovudine substrate, 1 mg/ml microsomal protein, 5 mM UDPGA and a 30 min incubation time. […] Int.

[9] = target: T2, UGT1A3; assay: Inhibition of raloxifene glucuronidation by recombinant UGT1A3 Supersomes; conditions: UGT1A3
Procedure: as §1

[10] = target: T4, UGT1A1; assay: Inhibition of raloxifene glucuronidation by recombinant UGT1A1 Supersomes; conditions: UGT1A1
Procedure: as §1

[11] = target: T3, UGT1A9; assay: Inhibition of raloxifene glucuronidation by recombinant UGT1A9 Supersomes; conditions: for activity at 15 min, 50 µM: human, Supersomes with recombinant human UGT1A9, pH 7.5, probe raloxifene 50 μM
Procedure: as §1

[12] = target: T1, UGT1A10; assay: Inhibition of raloxifene glucuronidation by recombinant UGT1A10 Bacculosomes; conditions: UGT1A10
Procedure: as §1

[13] = pH 7.5, % of control metabolism, raloxifene G1
[14] = pH 7.5, % of control metabolism, raloxifene G2
[15] = pH 7.5, Inhibition of raloxifene glucuronidation, G1, UGT1A3
[16] = pH 7.5, Inhibition of raloxifene glucuronidation, G2, UGT1A3
[17] = pH 7.5, Inhibition of raloxifene glucuronidation, G1, UGT1A1
[18] = pH 7.5, Inhibition of raloxifene glucuronidation, G2, UGT1A1

- activity at 15 min, 50 µM ([1]; raloxifene G1): 56%
- activity at 15 min, 50 µM ([1]; raloxifene G2): 64%
- activity at 15 min, 10 µM [2, 13]: 81%
- activity at 15 min, 25 µM [2, 13]: 59%
- activity at 15 min, 50 µM [2, 13]: 37%
- activity at 15 min, 10 µM [2, 14]: 56%
- activity at 15 min, 25 µM [2, 14]: 32%
- activity at 15 min, 50 µM [2, 14]: 10%
- activity at 15 min, 10 µM [2, 15]: 81%
- activity at 15 min, 25 µM [2, 15]: 58%
- activity at 15 min, 50 µM [2, 15]: 37%
- activity at 15 min, 10 µM [2, 16]: 56%
- activity at 15 min, 25 µM [2, 16]: 32%
- activity at 15 min, 50 µM [2, 16]: 10%
- activity at 15 min, 10 µM ([3]; raloxifene G1): 93%
- activity at 15 min, 25 µM ([3]; raloxifene G1): 74%
- activity at 15 min, 50 µM ([3]; raloxifene G1): 59%
- activity at 15 min, 10 µM ([3]; raloxifene G2): 72%
- activity at 15 min, 25 µM ([3]; raloxifene G2): 47%
- activity at 15 min, 50 µM ([3]; raloxifene G2): 22%
- activity at 15 min, 10 µM [4, 13]: 69%
- activity at 15 min, 25 µM [4, 13]: 46%
- activity at 15 min, 50 µM [4, 13]: 18%
- activity at 15 min, 10 µM [4, 14]: 63%
- activity at 15 min, 25 µM [4, 14]: 33%
- activity at 15 min, 50 µM [4, 14]: 7%
- activity at 15 min, 25 µM [4, 17]: 46%
- activity at 15 min, 50 µM [4, 17]: 18%
- activity at 15 min, 25 µM [4, 18]: 33%
- activity at 15 min, 50 µM [4, 18]: 7%
SMILES: COc1cc(C2Oc3cc([C@H]4Oc5cc(O)cc(O)c5C(=O)[C@@H]4O)ccc3OC2CO)ccc1O (some centres unmarked) [Silibinin]

SMILES: Oc1cc(O)c2c(c1)O[C@H](c1cc(O)c(O)c(O)c1)[C@H](O)C2 [Epigallocatechin]
- % of control metabolism (SD, n = 3), 7-HFC glucuronidation ([5]; inhibitor 100 μM): 77 (1) %
- % of control metabolism (SD, n = 3), 7-HFC glucuronidation ([5]; inhibitor 200 μM): 90 (1) %
- % of control metabolism (SD, n = 3), 7-HFC glucuronidation ([5]; inhibitor 500 μM): 81 (4) %
- residual metabolism (percentage of control), labetalol LG1 [6]: 96 (7) %
- residual metabolism (percentage of control), labetalol LG2 [6]: 87 (5) %
- % of control metabolism (SD, n = 3), raloxifene glucuronide G1 ([7]; inhibitor 500 μM): 65 (4) %
- % of control metabolism (SD, n = 3), raloxifene glucuronide G2 ([7]; inhibitor 500 μM): 79 (4) %
- residual metabolism (percentage of control), zidovudine glucuronidation [8]: 90 (3) %

- activity at 15 min, 50 µM ([1]; raloxifene G1): 110%
- activity at 15 min, 50 µM ([1]; raloxifene G2): 98%
- activity at 15 min, 50 µM [2, 13]: 95%
- activity at 15 min, 50 µM [2, 14]: 87%
- activity at 15 min, 50 µM [2, 15]: 95%
- activity at 15 min, 50 µM [2, 16]: 87%
- % of control metabolism (SD, n = 3), 7-HFC glucuronidation ([5]; inhibitor 500 μM): 83 (2) %
- inhibition of raloxifene glucuronidation, in words [9]: poor inhibitors
- activity at 15 min, 50 µM [4, 13]: 90%
- activity at 15 min, 50 µM [4, 14]: 89%
- activity at 15 min, 50 µM [4, 17]: 90%
- activity at 15 min, 50 µM [4, 18]: 89%
- inhibition of raloxifene glucuronidation, in words [10]: poor inhibitors
- inhibition of raloxifene glucuronidation, in words ([11]; UGT1A9): poor inhibitors
- activity at 15 min, 50 µM ([11]; formation of glucuronide G1, % of control metabolism, raloxifene G1, UGT1A9, inhibitor 50 μM): 81%
- activity at 15 min, 50 µM ([11]; formation of glucuronide G2, % of control metabolism, raloxifene G2, UGT1A9, inhibitor 50 μM): 83%
- Inhibition of raloxifene glucuronidation, UGT1A9, second line per inhibitor (G2) ([11]; second line (G2, metabolite not given), inhibitor 50 μM, raloxifene 50 μM, 250 μg/ml Supersomes, 1 mM UDPGA, 15 min): 83 (3)
- inhibition of raloxifene glucuronidation, in words [12]: poor inhibitors
- % of control metabolism (SD, n = 3), raloxifene glucuronide G1 ([7]; inhibitor 100 μM): 89 (3) %
- % of control metabolism (SD, n = 3), raloxifene glucuronide G1 ([7]; inhibitor 500 μM): 43 (5) %
- % of control metabolism (SD, n = 3), raloxifene glucuronide G2 ([7]; inhibitor 100 μM): 89 (2) %
- % of control metabolism (SD, n = 3), raloxifene glucuronide G2 ([7]; inhibitor 500 μM): 47 (1) %
- % of control metabolism, raloxifene G1 ([7]; inhibitor 100 μM): 89 (3) %
- % of control metabolism, raloxifene G2 ([7]; inhibitor 100 μM): 89 (2) %
SMILES: COc1c(C)c2c(c(O)c1C/C=C(\C)CCC(=O)O)C(=O)OC2 [Mycophenolic acid, reference compound]
